In general, IC50 refers to the concentration needed to halve the response being measured. High values mean weaker potency, low ones greater potency.

Our source for the IC50 values is ChEMBL document CHEMBL5727873, “Heterocyclic compounds and uses thereof” (2020).

The experiment concerns the target T1, Histone deacetylase 8 (Homo sapiens, UniProt Q9BY41).
T1 sequence (Q9BY41 whole entry): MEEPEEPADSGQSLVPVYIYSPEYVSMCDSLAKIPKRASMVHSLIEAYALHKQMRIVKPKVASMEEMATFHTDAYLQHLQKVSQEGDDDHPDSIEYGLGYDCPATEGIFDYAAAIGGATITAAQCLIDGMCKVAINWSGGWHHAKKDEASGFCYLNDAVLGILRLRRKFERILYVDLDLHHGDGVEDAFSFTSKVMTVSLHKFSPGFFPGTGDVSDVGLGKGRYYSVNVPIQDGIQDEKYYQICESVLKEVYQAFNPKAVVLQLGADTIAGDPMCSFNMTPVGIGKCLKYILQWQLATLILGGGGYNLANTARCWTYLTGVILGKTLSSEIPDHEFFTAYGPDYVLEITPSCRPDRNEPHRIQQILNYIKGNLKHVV
Kind of experiment: Enzymatic Assay: HDAC-Glo I/II Assay Kit was purchased from Promega Corporation (Madison, Wis.), including the following components: HDAC-Glo I/II Buffer (25 mM Tris buffer, pH 8.0, supplemented with 137 mM: NaCl, 2.7 mM KCl, 1% v/v Triton X-100 and 1 mM: MgCl2), luminogenic substrates Boc-GAK(Ac)-aminoluciferin (HDAC-Glo I/II substrate), proprietary developer reagent (containing trypsin). Assay:The HDAC8 reaction was performed at room temperature in white 384-well polystyrene, flat-bottom microtiter plate (Greiner Bio-one, Monroe, N.C.) in a final volume of 20 μL. Test compounds were first diluted serially in DMSO and 100 nL were transferred to the plate wells by Echo 550 (Labcyte, Sunnyvale, Calif.) before the addition of other reaction components. The final concentration of DMSO in the assay was 0.5%. The HDAC-Glo I/II assay reagent was prepared by rehydration of lyophilized HDAC-Glo I/II substrate in 10 mL. HDAC-Glo I/II assay buffer followed with the addition of 10 μL of developer reagent. 10 uL of 3 nM HDAC8 in the HDAC-Glo I/II assay buffer were first dispensed into the microliter plate containing the compounds and incubated at room temperature for 30 min. The reactions were initiated with the addition of 10 uL HDAC-Glo I/II assay reagent with Multidrop.

`Cn1nc(C(Cc2ccccc2)C(=O)NO)c2ccc(Cl)cc21` (configuration not stated): the IC50 was < 50 nM. As to `CC1CCN(c2cccc3nn(C(Cc4ccccc4)C(=O)NO)cc23)CC1` (configuration not stated), the IC50 is > 500 nM.
